Laboratory results: PMC10447267, “Assessment of the potential of the MET inhibitor tepotinib to affect the pharmacokinetics of CYP3A4 and P-gp substrates” (Investigational New Drugs, 2023)

Assays:
[1] = target: CYP3A4 (Homo sapiens, UniProt P08684); assay: Study 1 (NCT03628339): effect of tepotinib on midazolam pharmacokinetics in healthy participants
Experimental: (§1) Study 1 (NCT03628339) and Study 2 (NCT03492437) were both Phase 1, open-label, single sequence, 2-period studies in 12 and 20 healthy participants, respectively (Fig. 1).
In Period 2 (Days 3 to 15), participants received 500 mg tepotinib, QD 30 min after starting a continental breakfast on Days 3 to 12. On Day 13, participants received the final dose of 500 mg tepotinib 30 min after starting a standardized breakfast identical to the one on Day 1. […] Blood samples for trough concentrations of tepotinib were collected on Days 11, 12 and 13.
(§2) Parameters included maximum plasma concentration (Cmax) and time to reach Cmax (Tmax) taken directly from the observed data. Area under the plasma concentration–time curve (AUC) from time 0 to the last measured concentration (AUC0-t), AUC over the dose interval (AUCtau) and AUC extrapolated to infinity (AUC0-∞) were calculated using the mixed log/linear trapezoidal rule. Terminal elimination half-life (t1/2) was calculated as ln(2)/λz where λz is the terminal rate constant. The primary pharmacokinetic parameters in both studies were Cmax, AUC0-t and AUC0-∞.
(§3) A similar statistical approach was taken for both studies. […] Point estimates and CIs were back-transformed to the original scale.

[2] = target: P-gp (Homo sapiens, UniProt P08183); assay: Study 2 (NCT03492437): effect of tepotinib on dabigatran pharmacokinetics in healthy participants; type: in vivo
Experimental: as §1
In Period 2 (Days 4 to 14), participants received 500 mg tepotinib QD on Days 4 to 11. […] Blood samples for trough concentrations of tepotinib were collected on Days 9 and 10. Further blood samples for tepotinib and its metabolites were also collected up to 24 h postdose on Day 10.
as §2, §3

[3] = midazolam 7.5 mg with tepotinib 500 mg once daily, N = 12, geometric mean (geometric CV%)
[4] = midazolam 7.5 mg single oral dose alone, N = 12, geometric mean (geometric CV%)
[5] = tepotinib + dabigatran versus dabigatran alone

Sequence of CYP3A4 (P08684 whole entry): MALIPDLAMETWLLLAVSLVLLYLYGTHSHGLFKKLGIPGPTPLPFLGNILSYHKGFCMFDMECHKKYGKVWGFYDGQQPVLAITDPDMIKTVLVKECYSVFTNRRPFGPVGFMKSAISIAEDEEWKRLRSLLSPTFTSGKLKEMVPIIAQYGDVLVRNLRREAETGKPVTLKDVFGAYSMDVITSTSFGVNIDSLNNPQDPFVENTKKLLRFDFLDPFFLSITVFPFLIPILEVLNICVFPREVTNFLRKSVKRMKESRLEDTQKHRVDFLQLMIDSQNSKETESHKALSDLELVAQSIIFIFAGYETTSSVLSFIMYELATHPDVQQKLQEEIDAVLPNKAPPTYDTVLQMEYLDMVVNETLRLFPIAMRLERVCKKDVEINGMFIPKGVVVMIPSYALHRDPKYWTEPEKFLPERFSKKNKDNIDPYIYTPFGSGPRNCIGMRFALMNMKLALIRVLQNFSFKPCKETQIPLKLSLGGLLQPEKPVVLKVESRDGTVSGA
Sequence of P-gp (P08183 whole entry): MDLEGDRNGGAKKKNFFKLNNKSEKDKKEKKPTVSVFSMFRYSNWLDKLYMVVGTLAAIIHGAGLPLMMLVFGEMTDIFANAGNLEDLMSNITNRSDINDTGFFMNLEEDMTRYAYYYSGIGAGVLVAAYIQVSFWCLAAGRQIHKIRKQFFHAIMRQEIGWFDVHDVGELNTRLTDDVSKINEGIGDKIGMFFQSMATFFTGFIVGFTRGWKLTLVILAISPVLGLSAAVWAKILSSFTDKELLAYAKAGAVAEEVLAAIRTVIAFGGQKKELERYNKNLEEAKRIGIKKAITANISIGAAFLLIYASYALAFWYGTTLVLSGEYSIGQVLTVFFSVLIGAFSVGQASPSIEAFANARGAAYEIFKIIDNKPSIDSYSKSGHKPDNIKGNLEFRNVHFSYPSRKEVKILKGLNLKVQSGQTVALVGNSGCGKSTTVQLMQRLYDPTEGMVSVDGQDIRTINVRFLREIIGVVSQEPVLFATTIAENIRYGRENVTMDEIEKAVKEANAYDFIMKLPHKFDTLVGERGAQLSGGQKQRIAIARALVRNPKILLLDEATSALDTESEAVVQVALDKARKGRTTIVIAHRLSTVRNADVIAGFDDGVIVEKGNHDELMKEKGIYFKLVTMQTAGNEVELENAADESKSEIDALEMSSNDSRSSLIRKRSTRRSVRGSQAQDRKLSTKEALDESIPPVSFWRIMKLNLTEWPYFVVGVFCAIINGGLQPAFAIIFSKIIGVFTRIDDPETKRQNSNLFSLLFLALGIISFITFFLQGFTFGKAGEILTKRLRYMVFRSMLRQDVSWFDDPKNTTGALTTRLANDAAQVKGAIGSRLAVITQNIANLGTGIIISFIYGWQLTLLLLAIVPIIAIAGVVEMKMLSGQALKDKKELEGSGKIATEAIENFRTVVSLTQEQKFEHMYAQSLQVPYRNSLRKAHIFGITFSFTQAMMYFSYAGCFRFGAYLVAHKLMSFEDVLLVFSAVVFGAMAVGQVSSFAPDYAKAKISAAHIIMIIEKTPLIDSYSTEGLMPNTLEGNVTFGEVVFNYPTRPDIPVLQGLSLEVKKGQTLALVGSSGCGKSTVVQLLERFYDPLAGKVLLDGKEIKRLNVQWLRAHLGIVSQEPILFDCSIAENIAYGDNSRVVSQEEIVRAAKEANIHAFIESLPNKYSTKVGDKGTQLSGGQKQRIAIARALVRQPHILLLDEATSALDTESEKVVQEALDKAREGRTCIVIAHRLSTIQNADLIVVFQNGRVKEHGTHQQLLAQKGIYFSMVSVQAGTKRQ

`Cc1ncc2n1-c1ccc(Cl)cc1C(c1ccccc1F)=NC2` [midazolam] was tested, and the Tmax ([1]; human, plasma, oral) was 0.508 h, the half-life ([1]; human, plasma, oral) was about 5 h and the AUC0-t ([1]; human, plasma, po, 7.5 mg) was 108 ng·h/mL. For the same compound, the AUC(0-inf) ([1]; human, plasma, po, 7.5 mg) was 109 ng·h/mL, the Cmax ([1]; human, plasma, po, 7.5 mg) was 49.2 ng/mL and the Tmax ([1]; human, plasma, po, 7.5 mg) was 0.5 h. The t1/2 [1, 3] was 4.81 (41) h and the “Change in exposure to midazolam with tepotinib (in words)” value ([1]; tepotinib 500 mg QD orally) was “no change in exposure”.

`OCc1ncc2n1-c1ccc(Cl)cc1C(c1ccccc1F)=NC2` [1-hydroxymidazolam] was tested, and the AUC0-t [1, 4] was 30,589 (24) h*pg/mL, the “AUC0-∞” value [1, 4] was 31,269 (23) h*pg/mL and the Cmax [1, 4] was 14,909 (60) pg/mL. The t1/2 [1, 4] was 6.34 (30) h, the Tmax ([1]; midazolam 7.5 mg single oral dose alone, N = 12, median (min, max)) was 0.500 (0.500, 2.00) h and the AUC0-t [1, 3] was 32,627 (25) h*pg/mL. The “AUC0-∞” value [1, 3] was 33,372 (24) h*pg/mL, the Cmax [1, 3] was 15,852 (35) pg/mL and the t1/2 [1, 3] was 6.90 (27) h. The Tmax ([1]; midazolam 7.5 mg with tepotinib 500 mg once daily, N = 12, median (min, max)) was 0.508 (0.483, 2.00) h, the “MR_AUC (metabolic ratio of 1-hydroxymidazolam AUC0-∞ and midazolam AUC0-∞)” value ([1]; midazolam alone, geometric mean (geometric CV%)) was 0.286 (37) ratio and the “MR_AUC (metabolic ratio of 1-hydroxymidazolam AUC0-∞ and midazolam AUC0-∞)” value ([1]; midazolam with tepotinib 500 mg once daily, geometric mean (geometric CV%)) was 0.302 (34) ratio.

`[H]/N=C(/N)c1ccc(NCc2nc3cc(C(=O)N(CCC(=O)O)c4ccccn4)ccc3n2C)cc1` [dabigatran] was tested, and the half-life ([2]; human, plasma, oral, read-out: Terminal half-life (converted)) was about 8 h, the “Exposure increase to dabigatran with tepotinib” value ([2]; tepotinib 500 mg QD orally) was under 2 fold and the “Increase of dabigatran area under the curve extrapolated to infinity by tepotinib” value ([2]; tepotinib 500 mg once daily) was 51%. For the same compound, the “Increase of dabigatran AUC by coadministration with tepotinib” value ([2]; tepotinib 500 mg once daily, compared to administration alone) was about 50%, the “Ratio of Geometric LS Mean (90% CI), AUC0-t” value [2, 5] was 151.38 (127.35, 179.93) % and the “Ratio of Geometric LS Mean (90% CI), AUC0-∞” value [2, 5] was 144.70 (122.89, 170.39) %.
